{"source": "paper PMC7377239", "about": "“Cardiovascular Effects of Polychlorinated Biphenyls and Their Major Metabolites” (Environmental Health Perspectives, 2020)", "tested_on": "iCell cardiomyocytes (human iPSC-derived cardiomyocytes)", "assay": "Intracellular Ca2+ flux / beating parameters in iCell cardiomyocytes (FLIPR tetra), 90 min or 24 h", "assay_type": "cell-based", "conditions": "Homo sapiens, Cardiomyocyte, 0.00 µM = 100.00; for activity at 0.1 µM: 0.10 µM", "procedure,_shortened": "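Gelatin-plated iCell cardiomyocytes (5,000/well) were dye-loaded for 2 h at 37 °C, then exposed for 90 min or 24 h to PCBs/metabolites (5× plates at 0.05–500 µM; 0.5% DMSO final) in triplicate. Ca2+ flux was read for 100 s at 8 Hz and 37 °C. Peak height, frequency, spacing CV and decay/rise ratio were vehicle-normalized and fitted with a four-parameter logistic model, with POD set at 1 SD of vehicle.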", "key": {"[1]": {"conditions": "1.5 h, read-out: cm.amp.avg.90min"}, "[2]": {"conditions": "1.5 h, read-out: cm.amp.cv.90min"}, "[3]": {"conditions": "1.5 h, read-out: cm.decay.rise.90min"}, "[4]": {"conditions": "1.5 h, read-out: cm.spacing.cv.90min"}, "[5]": {"conditions": "24 h, read-out: cm.amp.avg.24hrs"}, "[6]": {"conditions": "24 h, read-out: cm.amp.cv.24hrs"}, "[7]": {"conditions": "24 h, read-out: cm.decay.rise.24hrs"}, "[8]": {"conditions": "24 h, read-out: cm.spacing.cv.24hrs"}}, "note": "Where two headings read alike, the source gives them in different places."}
{"smiles": "Clc1ccc(-c2ccccc2)cc1", "note": "[PCB3]", "values": [{"measurement": "activity at 0.01 µM", "setting": "[1]", "result": 98.5, "unit": "%"}, {"measurement": "activity at 0.01 µM", "setting": "[2]", "result": 109, "unit": "%"}, {"measurement": "activity at 0.01 µM", "setting": "1.5 h, read-out: cm.bpm.90min", "result": 95.3, "unit": "%"}, {"measurement": "activity at 0.01 µM", "setting": "[3]", "result": 98.9, "unit": "%"}, {"measurement": "activity at 0.01 µM", "setting": "[4]", "result": 124, "unit": "%"}, {"measurement": "activity at 0.1 µM", "setting": "[1]", "result": 104, "unit": "%"}, {"measurement": "activity at 0.1 µM", "setting": "[2]", "result": 102, "unit": "%"}, {"measurement": "activity at 0.1 µM", "setting": "1.5 h, read-out: cm.bpm.90min", "result": 96.5, "unit": "%"}, {"measurement": "activity at 0.1 µM", "setting": "[3]", "result": 99.5, "unit": "%"}, {"measurement": "activity at 0.1 µM", "setting": "[4]", "result": 116, "unit": "%"}, {"measurement": "activity at 1 µM", "setting": "[1]", "result": 99.9, "unit": "%"}, {"measurement": "activity at 1 µM", "setting": "[2]", "result": 123, "unit": "%"}, {"measurement": "activity at 1 µM", "setting": "1.5 h, read-out: cm.bpm.90min", "result": 96.5, "unit": "%"}, {"measurement": "activity at 1 µM", "setting": "[3]", "result": 96.1, "unit": "%"}, {"measurement": "activity at 1 µM", "setting": "[4]", "result": 130, "unit": "%"}, {"measurement": "activity at 10 µM", "setting": "[1]", "result": 99.5, "unit": "%"}, {"measurement": "activity at 10 µM", "setting": "[2]", "result": 115, "unit": "%"}, {"measurement": "activity at 10 µM", "setting": "1.5 h, read-out: cm.bpm.90min", "result": 103, "unit": "%"}, {"measurement": "activity at 10 µM", "setting": "[3]", "result": 98.8, "unit": "%"}, {"measurement": "activity at 10 µM", "setting": "[4]", "result": 121, "unit": "%"}, {"measurement": "activity at 100 µM", "setting": "[1]", "result": 81.2, "unit": "%"}, {"measurement": "activity at 100 µM", "setting": "[2]", "result": 180, "unit": "%"}, {"measurement": "activity at 100 µM", "setting": "1.5 h, read-out: cm.bpm.90min", "result": 193, "unit": "%"}, {"measurement": "activity at 100 µM", "setting": "[3]", "result": 99.9, "unit": "%"}, {"measurement": "activity at 100 µM", "setting": "[4]", "result": 133, "unit": "%"}, {"measurement": "activity at 0.01 µM", "setting": "[5]", "result": 91.3, "unit": "%"}, {"measurement": "activity at 0.01 µM", "setting": "[6]", "result": 119, "unit": "%"}, {"measurement": "activity at 0.01 µM", "setting": "24 h, read-out: cm.bpm.24hrs", "result": 103, "unit": "%"}, {"measurement": "activity at 0.01 µM", "setting": "[7]", "result": 98.3, "unit": "%"}, {"measurement": "activity at 0.01 µM", "setting": "[8]", "result": 138, "unit": "%"}, {"measurement": "activity at 0.1 µM", "setting": "[5]", "result": 87.1, "unit": "%"}, {"measurement": "activity at 0.1 µM", "setting": "[6]", "result": 41.5, "unit": "%"}, {"measurement": "activity at 0.1 µM", "setting": "24 h, read-out: cm.bpm.24hrs", "result": 52.5, "unit": "%"}, {"measurement": "activity at 0.1 µM", "setting": "[7]", "result": 47.1, "unit": "%"}, {"measurement": "activity at 0.1 µM", "setting": "[8]", "result": 61.2, "unit": "%"}, {"measurement": "activity at 1 µM", "setting": "[5]", "result": 87.1, "unit": "%"}, {"measurement": "activity at 1 µM", "setting": "[6]", "result": 146, "unit": "%"}, {"measurement": "activity at 1 µM", "setting": "24 h, read-out: cm.bpm.24hrs", "result": 103, "unit": "%"}, {"measurement": "activity at 1 µM", "setting": "[7]", "result": 104, "unit": "%"}, {"measurement": "activity at 1 µM", "setting": "[8]", "result": 118, "unit": "%"}, {"measurement": "activity at 10 µM", "setting": "[5]", "result": 110, "unit": "%"}, {"measurement": "activity at 10 µM", "setting": "[6]", "result": 106, "unit": "%"}, {"measurement": "activity at 10 µM", "setting": "24 h, read-out: cm.bpm.24hrs", "result": 110, "unit": "%"}, {"measurement": "activity at 10 µM", "setting": "[7]", "result": 98.5, "unit": "%"}, {"measurement": "activity at 10 µM", "setting": "[8]", "result": 128, "unit": "%"}, {"measurement": "activity at 100 µM", "setting": "[5]", "result": 0, "unit": "%"}, {"measurement": "activity at 100 µM", "setting": "[6]", "result": 0, "unit": "%"}, {"measurement": "activity at 100 µM", "setting": "24 h, read-out: cm.bpm.24hrs", "result": 0, "unit": "%"}, {"measurement": "activity at 100 µM", "setting": "[7]", "result": 0, "unit": "%"}, {"measurement": "activity at 100 µM", "setting": "[8]", "result": 0, "unit": "%"}]}
{"smiles": "Clc1cccc(-c2cccc(Cl)c2)c1", "note": "[PCB11]", "values": [{"measurement": "activity at 0.01 µM", "setting": "[1]", "result": 99.2, "unit": "%"}, {"measurement": "activity at 0.01 µM", "setting": "[2]", "result": 103, "unit": "%"}, {"measurement": "activity at 0.01 µM", "setting": "1.5 h, read-out: cm.bpm.90min", "result": 103, "unit": "%"}, {"measurement": "activity at 0.01 µM", "setting": "[3]", "result": 101, "unit": "%"}, {"measurement": "activity at 0.01 µM", "setting": "[4]", "result": 93.4, "unit": "%"}, {"measurement": "activity at 0.1 µM", "setting": "[1]", "result": 102, "unit": "%"}, {"measurement": "activity at 0.1 µM", "setting": "[2]", "result": 91.4, "unit": "%"}, {"measurement": "activity at 0.1 µM", "setting": "1.5 h, read-out: cm.bpm.90min", "result": 103, "unit": "%"}, {"measurement": "activity at 0.1 µM", "setting": "[3]", "result": 98.2, "unit": "%"}, {"measurement": "activity at 0.1 µM", "setting": "[4]", "result": 89.8, "unit": "%"}, {"measurement": "activity at 1 µM", "setting": "[1]", "result": 105, "unit": "%"}, {"measurement": "activity at 1 µM", "setting": "[2]", "result": 97.9, "unit": "%"}, {"measurement": "activity at 1 µM", "setting": "1.5 h, read-out: cm.bpm.90min", "result": 95.3, "unit": "%"}, {"measurement": "activity at 1 µM", "setting": "[3]", "result": 99.6, "unit": "%"}, {"measurement": "activity at 1 µM", "setting": "[4]", "result": 107, "unit": "%"}, {"measurement": "activity at 10 µM", "setting": "[1]", "result": 94.8, "unit": "%"}, {"measurement": "activity at 10 µM", "setting": "[2]", "result": 99.8, "unit": "%"}, {"measurement": "activity at 10 µM", "setting": "1.5 h, read-out: cm.bpm.90min", "result": 114, "unit": "%"}, {"measurement": "activity at 10 µM", "setting": "[3]", "result": 91.8, "unit": "%"}, {"measurement": "activity at 10 µM", "setting": "[4]", "result": 101, "unit": "%"}, {"measurement": "activity at 100 µM", "setting": "[1]", "result": 22.3, "unit": "%"}, {"measurement": "activity at 100 µM", "setting": "[2]", "result": 139, "unit": "%"}, {"measurement": "activity at 100 µM", "setting": "1.5 h, read-out: cm.bpm.90min", "result": 0, "unit": "%"}, {"measurement": "activity at 100 µM", "setting": "[3]", "result": 54.6, "unit": "%"}, {"measurement": "activity at 100 µM", "setting": "[4]", "result": 66.2, "unit": "%"}, {"measurement": "activity at 0.01 µM", "setting": "[5]", "result": 137, "unit": "%"}, {"measurement": "activity at 0.01 µM", "setting": "[6]", "result": 77.1, "unit": "%"}, {"measurement": "activity at 0.01 µM", "setting": "24 h, read-out: cm.bpm.24hrs", "result": 108, "unit": "%"}, {"measurement": "activity at 0.01 µM", "setting": "[7]", "result": 93.4, "unit": "%"}, {"measurement": "activity at 0.01 µM", "setting": "[8]", "result": 127, "unit": "%"}, {"measurement": "activity at 0.1 µM", "setting": "[5]", "result": 134, "unit": "%"}, {"measurement": "activity at 0.1 µM", "setting": "[6]", "result": 69.8, "unit": "%"}, {"measurement": "activity at 0.1 µM", "setting": "24 h, read-out: cm.bpm.24hrs", "result": 105, "unit": "%"}, {"measurement": "activity at 0.1 µM", "setting": "[7]", "result": 98.1, "unit": "%"}, {"measurement": "activity at 0.1 µM", "setting": "[8]", "result": 98.2, "unit": "%"}, {"measurement": "activity at 1 µM", "setting": "[5]", "result": 130, "unit": "%"}, {"measurement": "activity at 1 µM", "setting": "[6]", "result": 77.5, "unit": "%"}, {"measurement": "activity at 1 µM", "setting": "24 h, read-out: cm.bpm.24hrs", "result": 93.6, "unit": "%"}, {"measurement": "activity at 1 µM", "setting": "[7]", "result": 108, "unit": "%"}, {"measurement": "activity at 1 µM", "setting": "[8]", "result": 92.8, "unit": "%"}, {"measurement": "activity at 10 µM", "setting": "[5]", "result": 110, "unit": "%"}, {"measurement": "activity at 10 µM", "setting": "[6]", "result": 90.8, "unit": "%"}, {"measurement": "activity at 10 µM", "setting": "24 h, read-out: cm.bpm.24hrs", "result": 106, "unit": "%"}, {"measurement": "activity at 10 µM", "setting": "[7]", "result": 111, "unit": "%"}, {"measurement": "activity at 10 µM", "setting": "[8]", "result": 98.2, "unit": "%"}, {"measurement": "activity at 100 µM", "setting": "[5]", "result": 0, "unit": "%"}, {"measurement": "activity at 100 µM", "setting": "[6]", "result": 0, "unit": "%"}, {"measurement": "activity at 100 µM", "setting": "24 h, read-out: cm.bpm.24hrs", "result": 0, "unit": "%"}, {"measurement": "activity at 100 µM", "setting": "[7]", "result": 0, "unit": "%"}, {"measurement": "activity at 100 µM", "setting": "[8]", "result": 0, "unit": "%"}]}
